The target in assay [1] is SRPK2 (Homo sapiens (Human), UniProt P78362). Description: KINOMEscan competitive binding assay. The note with it: 10 uM.
The target in assay [2] is CDK11 (Homo sapiens (Human), UniProt Q9BWU1). Description: KINOMEscan competitive binding assay. The note with it: 10 uM.
Description: (§2) For the competitive binding assay, test compounds were screened at 10 μM against 70 diverse kinase targets for competitive binding using the KINOMEscan™ technology (Ambit Biosciences) (Karaman, et al. (2008) Nature biotechnology 26:127-132). 11-point Kd curves were determined for hits identified during the initial screen.
For assay [3], the target named is ABL1 (Homo sapiens (Human), UniProt P00519). In words: KINOMEscan competitive binding assay. The note with it: 10 uM.
Description: as §2
The test system of assay [4] is M21. Description: Tumor cell viability. Type of assay: cell-based. The note with it: Melanoma M21. Here is the method: (§1) For XTT assays, cells were grown in 96-well plates overnight and all assays were conducted in growth medium will full serum and additives. Compounds were serially diluted in DMSO and then further diluted into the medium to give the appropriate concentration while minimizing precipitation associated with serial diluting in medium alone Inhibitors were added for 72 h and cell viability was quantified at 450 nm after the addition of 1 mg/ml XTT solution (Sigma-Aldrich) in phenol-red free DMEM medium containing […] (Sigma-Aldrich). Dose-response curves were plotted using GraphPad Prism software and EC50s were calculated using this program.

Assay [5] concerns M21L. In words: Tumor cell viability. The class given is cell-based. The note with it: Melanoma M21L. How it is done:
as §1

The test system of assay [6] is A431. Description: Tumor cell viability. The class given is cell-based. The note with it: Epithelial Carcinoma A431, HER1. How it is done:
as §1

The test system of assay [7] is CT26. In words: Tumor cell viability. The note with it: Colon Carcinoma CT26. Type of assay: cell-based. Here is the method: as §1
For assay [8], the target named is B-RAF/C-RAF dimerization (Homo sapiens (Human), UniProt P15056). In words: B-RAF/C-RAF dimerization in XPA-1 pancreatic cancer cells (immunoprecipitation/Western). Type of assay: cell-based. The note with it: XPA-1 cells.
Assay [9] concerns MDA-MB231 human breast carcinoma cells. In words: MDA-MB231 orthotopic breast cancer xenograft. Type of assay: in vivo, mice. Here is the method: Tumors were generated by injection of MDA-MB231 human breast carcinoma cells (1×10^6 tumor cells in 50 μl of sterile PBS) into the mammary fatpad of 6-8 week old female Nu/Nu mice. Tumors were allowed to grow and the mice were randomized into two groups with an average tumor volume of 100 mm^3. […] Tumor growth was monitored by measuring the tumor length and width with precision calipers every 2 days and calculating tumor volume using the following formula: Tumor volume=0.5*(length)*(width)^2, provided the smaller measurement was utilized as the length. […] Scale bar 20 μM. […] Cells were lysed in RIPA buffer (50 mM Tris pH 7.4, 100 mM NaCl, 0.1% SDS, 1.0% TritonX-100, 1% deoxycholate) supplemented with complete protease inhibitor mixture (Roche), 50 mM NaF, and 1 mM Na3VO4 and centrifuged at 13,000 g for 10 min at 4° C. Protein concentration was determined by BCA assay and 30 μg of protein was loaded per lane of 10% SDS-PAGE gel. Immunohistochemistry in FIG. 18A was performed according to the manufacturer's recommendations (Vector Labs), on […] sections of paraffin-embedded tumors from the orthotopic xenograft breast cancer mouse model (MDA-MB231). For phospho-S338 CRAF immunohistochemistry, antigen retrieval was performed in citrate buffer pH 6.0 at 95° C. for 20 min. […]

Assay [10] addresses BRAF (Homo sapiens (Human), UniProt P15056). In words: KINOMEscan competitive binding assay. The note with it: 10 uM.
Description: as §2
Assay [11] has as its target FGFR2 (Homo sapiens (Human), UniProt P21802). In words: KINOMEscan competitive binding assay. The note with it: 10 uM.
Description: as §2
Assay [12] addresses PRKD1 (Homo sapiens (Human), UniProt Q15139). Description: KINOMEscan competitive binding assay. The note with it: 10 uM.
Assay [13] can be described thus: Treatment of fibrosis in patients with interstitial lung disease. Type of assay: in vivo, human. The note with it: 50 mg/Kg/day, oral, 6 months. How it is done:
This can include patients referred for presumed pulmonary fibrosis/interstitial pneumonitis (IPF, UIP, NSIP), sarcoidosis, hypersensitivity pneumonitis, cryptogenic organising pneumonia, drug-induced, or other idiopathic ILDs. The patients are evaluated after 6 months of treatment.

In assay [14] the test system is B-RAF (V600E). In words: ERK phosphorylation in 1205Lu melanoma cells expressing B-RAF V600E. The class given is cell-based, human. The note with it: 10 μM, 1 h.
Assay [15] deals with PRKCE (Homo sapiens (Human), UniProt Q02156). Description: KINOMEscan competitive binding assay. The note with it: 10 uM.
In assay [16] the target is MLK3 (Homo sapiens (Human), UniProt Q16584). Description: KINOMEscan competitive binding assay. The note with it: 10 uM.
MLK3, sequence (Q16584 whole entry): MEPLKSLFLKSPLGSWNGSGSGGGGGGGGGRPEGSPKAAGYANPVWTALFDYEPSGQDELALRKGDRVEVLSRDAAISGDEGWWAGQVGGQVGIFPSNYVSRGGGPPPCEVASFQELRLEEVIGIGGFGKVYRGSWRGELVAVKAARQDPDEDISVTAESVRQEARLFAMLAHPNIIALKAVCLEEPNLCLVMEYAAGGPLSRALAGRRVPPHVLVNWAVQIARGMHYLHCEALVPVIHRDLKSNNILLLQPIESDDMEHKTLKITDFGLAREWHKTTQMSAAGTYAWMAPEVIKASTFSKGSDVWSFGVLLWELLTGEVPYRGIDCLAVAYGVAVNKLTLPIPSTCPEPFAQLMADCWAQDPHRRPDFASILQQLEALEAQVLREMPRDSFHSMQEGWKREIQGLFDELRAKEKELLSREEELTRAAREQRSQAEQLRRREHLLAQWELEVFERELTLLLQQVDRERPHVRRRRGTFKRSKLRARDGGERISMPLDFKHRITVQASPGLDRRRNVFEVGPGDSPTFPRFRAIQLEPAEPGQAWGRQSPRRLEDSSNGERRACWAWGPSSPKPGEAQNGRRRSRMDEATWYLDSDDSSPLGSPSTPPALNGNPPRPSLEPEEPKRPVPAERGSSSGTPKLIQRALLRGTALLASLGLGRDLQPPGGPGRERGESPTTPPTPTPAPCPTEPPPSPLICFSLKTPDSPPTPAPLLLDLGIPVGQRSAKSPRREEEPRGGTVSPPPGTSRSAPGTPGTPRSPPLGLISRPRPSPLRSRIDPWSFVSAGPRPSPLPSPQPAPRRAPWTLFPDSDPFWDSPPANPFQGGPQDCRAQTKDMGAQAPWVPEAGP

B-RAF/C-RAF dimerization, sequence (P15056 whole entry): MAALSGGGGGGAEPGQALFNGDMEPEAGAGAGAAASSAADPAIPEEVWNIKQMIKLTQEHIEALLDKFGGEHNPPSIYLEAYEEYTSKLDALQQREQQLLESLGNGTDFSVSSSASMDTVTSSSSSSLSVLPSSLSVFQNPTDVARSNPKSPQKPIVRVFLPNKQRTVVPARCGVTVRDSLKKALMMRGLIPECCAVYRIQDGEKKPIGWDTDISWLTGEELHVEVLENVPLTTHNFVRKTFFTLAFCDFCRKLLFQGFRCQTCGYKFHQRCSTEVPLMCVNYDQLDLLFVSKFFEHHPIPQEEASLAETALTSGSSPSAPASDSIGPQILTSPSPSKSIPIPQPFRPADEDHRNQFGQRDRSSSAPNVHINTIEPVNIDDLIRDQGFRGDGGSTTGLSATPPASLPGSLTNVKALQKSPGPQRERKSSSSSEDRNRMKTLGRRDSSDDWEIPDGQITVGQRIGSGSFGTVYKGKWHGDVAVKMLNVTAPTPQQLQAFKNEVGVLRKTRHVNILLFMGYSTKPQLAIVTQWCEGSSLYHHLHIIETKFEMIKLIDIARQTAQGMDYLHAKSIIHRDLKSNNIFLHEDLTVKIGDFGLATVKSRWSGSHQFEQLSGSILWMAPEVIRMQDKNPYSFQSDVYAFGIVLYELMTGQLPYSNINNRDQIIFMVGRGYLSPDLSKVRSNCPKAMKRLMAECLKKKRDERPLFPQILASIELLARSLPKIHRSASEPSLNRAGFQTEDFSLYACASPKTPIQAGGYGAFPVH
BRAF, sequence (P15056 457-717): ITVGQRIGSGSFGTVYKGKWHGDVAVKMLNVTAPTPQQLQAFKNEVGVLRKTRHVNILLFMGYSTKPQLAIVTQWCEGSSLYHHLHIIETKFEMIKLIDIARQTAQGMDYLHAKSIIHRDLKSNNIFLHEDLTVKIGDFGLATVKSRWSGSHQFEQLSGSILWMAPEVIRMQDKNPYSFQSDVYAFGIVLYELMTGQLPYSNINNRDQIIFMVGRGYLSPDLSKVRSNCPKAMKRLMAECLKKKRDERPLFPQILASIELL
SRPK2, sequence (P78362 whole entry): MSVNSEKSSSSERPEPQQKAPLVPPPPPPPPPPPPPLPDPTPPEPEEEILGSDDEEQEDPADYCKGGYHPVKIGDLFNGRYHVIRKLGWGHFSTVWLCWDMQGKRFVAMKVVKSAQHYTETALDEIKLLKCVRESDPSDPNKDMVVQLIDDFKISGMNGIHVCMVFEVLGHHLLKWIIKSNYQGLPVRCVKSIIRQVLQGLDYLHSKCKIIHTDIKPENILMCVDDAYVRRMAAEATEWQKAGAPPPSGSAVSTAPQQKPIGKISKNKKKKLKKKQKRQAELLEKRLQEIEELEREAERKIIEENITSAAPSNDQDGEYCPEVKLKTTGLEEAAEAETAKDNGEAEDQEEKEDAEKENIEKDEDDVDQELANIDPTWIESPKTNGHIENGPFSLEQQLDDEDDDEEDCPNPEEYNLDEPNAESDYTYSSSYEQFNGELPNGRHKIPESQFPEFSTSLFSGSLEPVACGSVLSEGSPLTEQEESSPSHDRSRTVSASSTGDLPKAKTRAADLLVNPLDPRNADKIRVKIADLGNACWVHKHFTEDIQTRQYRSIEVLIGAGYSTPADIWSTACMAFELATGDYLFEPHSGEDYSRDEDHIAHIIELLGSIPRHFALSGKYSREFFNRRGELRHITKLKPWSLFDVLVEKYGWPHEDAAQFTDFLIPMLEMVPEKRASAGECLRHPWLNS
PRKD1, sequence (Q15139 whole entry): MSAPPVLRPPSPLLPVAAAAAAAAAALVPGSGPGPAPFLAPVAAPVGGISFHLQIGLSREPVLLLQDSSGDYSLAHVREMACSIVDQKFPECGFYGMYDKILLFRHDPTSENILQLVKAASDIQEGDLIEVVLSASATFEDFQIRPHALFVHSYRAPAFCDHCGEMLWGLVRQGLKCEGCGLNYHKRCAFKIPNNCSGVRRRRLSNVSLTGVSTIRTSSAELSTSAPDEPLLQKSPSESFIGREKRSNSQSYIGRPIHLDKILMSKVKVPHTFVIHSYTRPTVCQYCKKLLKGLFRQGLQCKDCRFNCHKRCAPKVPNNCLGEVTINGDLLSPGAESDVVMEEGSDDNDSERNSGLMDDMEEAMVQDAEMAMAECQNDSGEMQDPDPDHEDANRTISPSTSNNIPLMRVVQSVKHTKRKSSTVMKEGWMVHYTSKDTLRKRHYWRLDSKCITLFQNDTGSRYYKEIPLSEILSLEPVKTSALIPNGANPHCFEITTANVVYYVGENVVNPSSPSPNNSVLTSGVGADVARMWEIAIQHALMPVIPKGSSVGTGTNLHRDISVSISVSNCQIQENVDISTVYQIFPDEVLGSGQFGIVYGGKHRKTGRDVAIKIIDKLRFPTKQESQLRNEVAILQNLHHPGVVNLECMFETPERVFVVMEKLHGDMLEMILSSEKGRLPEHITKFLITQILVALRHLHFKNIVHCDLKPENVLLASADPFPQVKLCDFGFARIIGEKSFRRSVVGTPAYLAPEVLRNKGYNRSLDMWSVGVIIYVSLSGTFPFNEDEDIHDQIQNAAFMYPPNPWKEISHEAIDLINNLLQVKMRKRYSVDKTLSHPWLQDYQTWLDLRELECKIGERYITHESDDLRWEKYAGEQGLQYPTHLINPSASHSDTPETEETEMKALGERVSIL
PRKCE, sequence (Q02156 whole entry): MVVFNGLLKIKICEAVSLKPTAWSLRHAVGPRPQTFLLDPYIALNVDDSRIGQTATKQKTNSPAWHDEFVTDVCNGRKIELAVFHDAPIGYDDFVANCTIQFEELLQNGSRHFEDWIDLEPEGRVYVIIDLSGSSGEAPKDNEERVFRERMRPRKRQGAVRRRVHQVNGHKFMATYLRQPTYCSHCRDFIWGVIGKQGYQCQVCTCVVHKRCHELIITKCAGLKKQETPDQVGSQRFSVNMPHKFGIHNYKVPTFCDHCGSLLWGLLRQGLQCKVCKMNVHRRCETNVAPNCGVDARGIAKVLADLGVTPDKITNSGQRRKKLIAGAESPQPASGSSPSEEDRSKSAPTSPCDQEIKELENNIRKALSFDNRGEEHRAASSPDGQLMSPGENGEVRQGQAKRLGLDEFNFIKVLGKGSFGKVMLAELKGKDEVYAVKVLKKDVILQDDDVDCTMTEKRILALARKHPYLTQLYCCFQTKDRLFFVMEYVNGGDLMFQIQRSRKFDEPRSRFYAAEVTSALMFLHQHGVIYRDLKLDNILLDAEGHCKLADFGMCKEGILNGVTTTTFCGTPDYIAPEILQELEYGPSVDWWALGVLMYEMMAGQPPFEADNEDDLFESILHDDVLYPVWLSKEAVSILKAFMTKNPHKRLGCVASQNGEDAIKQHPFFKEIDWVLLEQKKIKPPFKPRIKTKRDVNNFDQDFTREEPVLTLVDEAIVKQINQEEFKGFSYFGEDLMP
CDK11, sequence (Q9BWU1 whole entry): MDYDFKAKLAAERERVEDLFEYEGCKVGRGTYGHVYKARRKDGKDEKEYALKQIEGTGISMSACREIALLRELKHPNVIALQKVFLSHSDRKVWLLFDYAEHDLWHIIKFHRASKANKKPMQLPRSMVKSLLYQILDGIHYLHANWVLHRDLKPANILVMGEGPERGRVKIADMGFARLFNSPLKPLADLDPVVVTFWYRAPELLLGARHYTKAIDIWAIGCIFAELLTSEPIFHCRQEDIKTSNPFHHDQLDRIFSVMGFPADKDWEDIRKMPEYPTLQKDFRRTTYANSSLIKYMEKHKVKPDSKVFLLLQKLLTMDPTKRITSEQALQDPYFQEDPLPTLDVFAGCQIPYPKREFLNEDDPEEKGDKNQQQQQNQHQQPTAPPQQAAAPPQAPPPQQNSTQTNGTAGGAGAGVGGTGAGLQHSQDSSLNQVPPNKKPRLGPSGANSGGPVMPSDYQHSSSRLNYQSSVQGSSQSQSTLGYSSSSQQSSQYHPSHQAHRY

Broadly, the EC50 is the midpoint of the concentration-response curve. With `CSc1nc(N)cc(Oc2ccc(-c3nnc(Nc4cccc(C(F)(F)F)c4)[nH]3)cc2)n1` [Compound 6], the “% Control” value in assay [1] is reported as 100%; in assay [2], 32%; in assay [3], 100%; in [10], 91%; in assay [11], 100%; in [12], 100%. Further, the figures for the “% Control” value in assay [15] and in assay [16] were 91% and 96%, respectively. For the same compound, the EC50 in assay [4] was 450 nM; in assay [5] it was 420 nM; in assay [6], 430 nM; in assay [7], 710 nM. In addition, the “RAF dimerization and pS338-CRAF” value in assay [8] is “prevent RAF dimerization and pS338-CRAF”. For the same compound, the “breast tumor growth compared to vehicle” value in assay [9] (50 mg/kg, bid, ip) is recorded as “suppresses tumor growth”. Further, the “phosphorylation of CRAF S338 in breast tumors” value in assay [9] (three consecutive days, tumors resected 1 h after final dose) is “clearly inhibits phosphorylation of S338”. In [13], the “outcome of fibrosis treatment versus placebo” value is listed as “improvement over placebo group”. For the same compound, the “phosphorylation of ERK T202/Y204 in cells expressing constitutively active B-RAF (V600E)” value in assay [14] is reported as “completely disrupted”.

(Values after patent US9260417B2, “Therapeutic methods and compositions involving allosteric kinase inhibition” (AMITECH THERAPEUTIC SOLUTIONS, INC., priority 2010, dated 2016).)
